target: T1, PAF receptor (Oryctolagus cuniculus, UniProt G1TEI7); assay: PAF receptor binding assay ([3H]C18-PAF, rabbit platelet membranes); conditions: inhibition of specific binding of 0.6 nM [3H]C18-PAF to rabbit platelet membranes, 60 min, room temperature; Ki calculated from IC50 by Cheng and Prusoff; read-out: PAF Receptor Binding Activity K1
T1 construct: platelet membranes where prepared by centrifugation and washing; tissue Pel-Freez (Rogers, AR) (whole rabbit blood); host or cells: rabbit platelet membranes
T1 sequence (G1TEI7 1-342): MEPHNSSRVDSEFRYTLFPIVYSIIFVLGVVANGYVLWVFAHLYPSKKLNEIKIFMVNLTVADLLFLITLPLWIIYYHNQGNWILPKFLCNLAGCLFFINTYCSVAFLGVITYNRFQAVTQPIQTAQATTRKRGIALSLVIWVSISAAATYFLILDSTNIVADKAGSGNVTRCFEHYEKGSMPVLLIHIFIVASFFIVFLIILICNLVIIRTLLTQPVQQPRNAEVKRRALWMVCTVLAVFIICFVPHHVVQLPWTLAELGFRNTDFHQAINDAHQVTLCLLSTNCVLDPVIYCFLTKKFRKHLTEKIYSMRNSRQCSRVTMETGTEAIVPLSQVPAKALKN
Experimental: The ability of representative compounds of the present invention to inhibit PAF activity was determined in an in vitro test using the following method.
Citrated whole rabbit blood was obtained from Pel-Freez (Rogers, AR). Rabbit platelets where prepared by centrifugation and washing. The platelets where lysed by freeze-thawing and sonication; platelet membranes where prepared by centrifugation and washing. Final membrane preparations where stored frozen in 10 mM Tris/5 mM MgCl2 /2 mM EDTA (TME buffer, pH 7.0) with 0.25 M sucrose added for membrane stabilization.
The final volume of the assay was 100 μl. The assay was conducted in Millititre-GV™ (Millipore Corp.) filtration plates; incubation time was for 60 minutes at room temperature (22°-23° C.). "Specific binding" was operationally defined as the arithmetic difference between "total binding" of 0.6 nM [^3 H]C18 -PAF (in the absence of added PAF) and "nonspecific binding" (in the presence of 1 μM PAF). After the prescribed incubation, platelet membranes where filtered under vacuum and washed with 1 millilitre of "binding buffer". The filters was dried and removed. The bound radioactivity was quantitated with a Berthold TLC-Linear Analyzer model LB2842.
Experiments where repeated at least once.

Compound | Ki [nM]
COc1ccc(-c2ccc3c(C(=O)c4ccn5c4CSC5c4cccnc4)cn(C(=O)N(C)C)c3c2)cc1 (stereo not shown) [Example 40, 3-(Pyridin-3-yl)-7-[1-N,N-dimethylcarbamoyl-6-(4-methoxyphenyl)indol-3-ylcarbonyl]-1H,3H-pyrrolo[1,2-c]thiazole] | 26
CC(C)(C)OC(=O)NCCn1cc(C(=O)c2ccn3c2CSC3c2cccnc2)c2ccc(-c3ccc(F)cc3)cc21 (stereo not shown) [Example 57] | 38
3-[Pyridin-3-yl)-7-(6-pyrimid-2-ylindol-3-ylcarbonyl)-1H,3H-pyrrolo[1,2-c]thiazole [Example 74] | 84
3-(Pyridin-3-yl)-7-[1-N-sulfoethylcarbamoyl-6-(4-fluorophenyl)indol- 3-ylcarbonyl]-1H,3H-pyrrolo[1,2-c]thiazole [Example 100] | > 300

same assay, conditions: read-out: PAF Receptor Binding Activity K1

Ki [nM] | Compound
2200 | CC(C)(C)OC(=O)n1cc(C(=O)c2ccn3c2C[S+]([O-])C3c2cccnc2)c2ccccc21 (stereo not shown) [Example 13, 2-Oxide-3-(pyridin-3-yl)-7-(1-tert-butyloxycarbonylindol-3-ylcarbonyl)-1H,3H-pyrrolo[1,2-c]thiazole]
8 | COc1cc(-c2ccc3c(C(=O)c4ccn5c4CSC5c4cccnc4)cn(C(=O)N(C)C)c3c2)cc(OC)c1OC (stereo not shown) [Example 48, 3-(Pyridin-3-yl)-7-[1-N,N-dimethylcarbamoyl-6-(3,4,5-trimethoxyphenyl)indol-3-ylcarbonyl]-1H,3H-pyrrolo[1,2-c]thiazole]
10.7 | ON=C(c1ccn2c1CSC2c1cccnc1)c1c[nH]c2cc(-c3ccc(F)cc3)ccc12 (stereo not shown) [Example 83, 3-(Pyridin-3-yl)-7-[6-(4-fluorophenyl)indol-3-ylcarbonyloxime]-1H,3H-pyrrolo[1,2-c]thiazole]
272 | COc1ccc(-c2ccc3c(C(=O)c4ccn5c4C(C)(C)SC5c4cccnc4)c[nH]c3c2)cc1 (stereo not shown) [Example 25, 1,1-Dimethyl-3-(pyridin-3-yl)-7-[6-(4-methoxyphenyl)indol-3-ylcarbonyl]-1H,3H-pyrrolo[1,2-c]thiazole]
100 | CN(C)C(=O)n1cc(C(=O)c2ccn3c2C(C)(C)SC3c2cccnc2)c2ccccc21 (stereo not shown) [Example 19, 1,1-Dimethyl-3-(pyridin-3-yl)-7-(1-N,N-dimethylcarbamoyl-indol-3-ylcarbonyl)-1H,3H-pyrrolo[1,2-c]thiazole]
4.3 | O=C(c1ccn2c1CSC2c1cccnc1)c1cn(C(=O)NCCc2c[nH]cn2)c2cc(-c3ccc(F)cc3)ccc12 (stereo not shown) [Example 105, 3-(Pyridin-3-yl)-7-[1-N-(2-(4-imidazolyl)ethyl)carbamoyl-6-(4-fluorophenyl)indol-3-ylcarbonyl]-1H,3H-pyrrolo[1,2-c]thiazole]
51 | CN(C)C(=O)n1cc(C(=O)c2ccn3c2C(C)(C)SC3c2cccnc2)c2ccc(-c3ccccc3)cc21 (stereo not shown) [Example 24, 1,1-Dimethyl-3-(pyridin-3-yl)-7-(1-N,N-dimethylcarbamoyl-6-phenylindol-3-ylcarbonyl)-1H,3H-pyrrolo[1,2-c]thiazole]
590 | O=C(c1ccn2c1CSC2c1cccnc1)c1c[nH]c2cc(Cl)ccc12 (stereo not shown) [Example 47, 3-(Pyridin-3-yl)-7-(6-chloroindol-3-ylcarbonyl)-1H,3H-pyrrolo[1,2-c]thiazole]
120 | CS(=O)(=O)n1cc(C(=O)c2ccn3c2CSC3c2cccnc2)c2ccc(-c3ccc(F)cc3)cc21 (stereo not shown) [Example 51, 3-(Pyridin-3-yl)-7-[1-methanesulfonyl-6-(4-fluorophenyl)indol-3-ylcarbonyl]-1H,3-pyrrolo[1,2-c]thiazole]
2000 | CN(C)C(=O)n1cc(C(=O)c2ccn3c2CSC3c2cccnc2)c2ccccc21 (stereo not shown) [Example 2, 3-(Pyridin-3-yl)-7-(1-N,N-dimethylcarbamoylindol-3-yl)carbonyl-1H,3H-pyrrolo[1,2-c]thiazole]
2000 | O=C(c1ccn2c1CSC2c1cccnc1)c1c[nH]c2cc(-c3cccnc3)ccc12 (stereo not shown) [Example 41]
210 | CN(C)S(=O)(=O)n1cc(C(=O)c2ccn3c2CSC3c2ccc[n+]([O-])c2)c2ccc(-c3ccc(F)cc3)cc21 (stereo not shown) [Example 60, 3-(1-Oxide-pyridin-3-yl)-7-[1-N,N-dimethylsulfamyl-6-(4-fluorophenyl)indol-3-ylcarbonyl]-1H,3H-pyrrolo[1,2-c]thiazole]
20 | CN(C)C(=O)n1cc(C(=O)c2ccn3c2CSC3c2cccnc2)c2ccc(-c3ccc(C(=O)NN)cc3)cc21 (stereo not shown) [Example 91, 3-(1-Oxide-pyridin-3-yl)-7-[1-N,N-dimethylcarbamoyl-6-(4-hydrazinylcarbonylphenyl)indol-3-ylcarbonyl]-1H,3H-pyrrolo[1,2-c]thiazole]
35 | COC(=O)n1cc(C(=O)c2ccn3c2CSC3c2cccnc2)c2ccc(OCc3ccccc3)cc21 (stereo not shown) [Example 18]
1000 | COc1ccc(-c2ccc3c(C(=O)c4ccn5c4CSC5c4cccnc4)c[nH]c3c2)cc1 (stereo not shown) [Example 38, 3-(Pyridin-3-yl)-7-[6-(4-methoxyphenyl)indol-3-yl]carbonyl-1H,3H-pyrrolo[1,2-c]thiazole]
4.1 | COc1ccc(-c2ccc3c(C(=O)c4ccn5c4CSC5c4ccc[n+]([O-])c4)cn(C(=O)N(C)C)c3c2)cc1 (stereo not shown) [Example 45, 3-(1-Oxide-pyridin-3-yl)-7-[1-N,N-dimethylcarbamoyl-6-(4-methoxyphenyl)indol-3-ylcarbonyl]-1H,3H-pyrrolo[1,2-c]thiazole]
1100 | CC1(C)SC(c2cccnc2)n2ccc(C(=O)c3c[nH]c4cc(-c5ccc(F)cc5)ccc34)c21 (stereo not shown) [Example 36, 1,1-Dimethyl-3-(pyridin-3-yl)-7-[6-(4-fluorophenyl)indol-3-ylcarbonyl]-1H,3H-pyrrolo[1,2-c]thiazole]
26 | CNC(=O)n1cc(C(=O)c2ccn3c2CSC3c2cccnc2)c2ccc(-c3ccc(OC)cc3)cc21 (stereo not shown) [Example 43, 3-(Pyridin-3-yl)-7-[1-N-methylcarbamoyl-6-(4-methoxyphenyl)indol-3-ylcarbonyl]-1H,3H-pyrrolo[1,2-c]thiazole]
95 | O=C(c1ccn2c1CSC2c1cccnc1)c1c[nH]c2cc(-c3ccccc3)ccc12 (stereo not shown) [Example 10, 3-(Pyridin-3-yl)-7-(6-phenylindol-3-yl)carbonyl-1H,3H-pyrrolo[1,2-c]thiazole]
49 | Cn1cc(C(=O)c2ccn3c2CSC3c2ccc[n+]([O-])c2)c2ccc(OCc3ccccc3)cc21 (stereo not shown) [Example 58, 3-(1-Oxide-pyridin-3-yl)-7-(1-methyl-6-phenylmethoxyindol-3-ylcarbonyl)-1H,3H-pyrrolo[1,2-c]thiazole]
95 | CN(C)C(=O)n1cc(C(=O)c2ccn3c2C[S+]([O-])C3c2cccnc2)c2ccc(-c3ccccc3)cc21 (stereo not shown) [Example 23, 2-Oxide-3-(pyridin-3-yl)-7-(1-N,N-dimethylcarbamoyl-6-phenyllindol-3-ylcarbonyl)-1H,3H-pyrrolo[1,2-c]thiazole]
6.1 | NC(=O)n1cc(C(=O)c2ccn3c2CSC3c2cccnc2)c2ccc(-c3ccc(F)cc3)cc21 (stereo not shown) [Example 76, 3-(Pyridin-3-yl)-7-[1-carbamoyl-6-(4-fluorophenyl)indol-3-ylcarbonyl]-1H,3H-pyrrolo[1,2-c]thiazole]
580 | O=C(c1ccn2c1CSC2c1cccnc1)c1c[nH]c2cc(Br)ccc12 (stereo not shown) [Example 63, 3-(Pyridin-3-yl)-7-(6-bromoindol-3-ylcarbonyl)-1H,3H-pyrrolo[1,2-c]thiazol]
90 | O=C(c1ccn2c1CSC2c1cccnc1)c1c[nH]c2c(OCc3ccccc3)cccc12 (stereo not shown) [Example 5, 3(Pyridin-3-yl)-7-(7-phenylmethoxyindol-3-yl)carbonyl-1H,3H-pyrrolo[1,2-c]thiazole]
1100 | O=C(c1ccn2c1CSC2c1cccnc1)c1cn(S(=O)(=O)c2ccccc2)c2cc(-c3ccc(F)cc3)ccc12 (stereo not shown) [Example 61, 3-(Pyridin-3-yl)-7-[1-phenylsulfonyl-6-(4-fluorophenyl)indol-3-ylcarbonyl]-1H,3H-pyrrolo[1,2-c]thiazole]
23 | CN(C)C(=O)n1cc(C(=O)c2ccn3c2CSC3c2cccnc2)c2ccc(-c3ccccc3)cc21 (stereo not shown) [Example 12, 3-(Pyridin-3-yl)-7-(1-N,N-dimethylcarbamoyl-6-phenylindol-3-yl)carbonyl-1H,3H-pyrrolo[1,2-c]thiazole]

Compound | Ki [nM]
COC(=O)CCn1cc(C(=O)c2ccn3c2CSC3c2cccnc2)c2ccc(-c3ccc(F)cc3)cc21 (stereo not shown) [Example 46, 3-(Pyridin-3-yl)-7-[1-(2-carbomethoxyethyl)-6-(4-fluorophenyl)indol-3-ylcarbonyl]-1H,3H-pyrrolo[1,2-c]thiazole] | 10
CC(=O)OC[n+]1cccc(C2SCc3c(C(=O)c4cn(C(=O)N(C)C)c5cc(-c6ccc(F)cc6)ccc45)ccn32)c1 (stereo not shown) [Example 92, 3-(1-Acetoxymethylpyridin-3-yl)-7-[1-N,N-dimethylcarbamoyl-6-(4-fluorophenyl)indol-3-ylcarbonyl]-1H,3H-pyrrolo[1,2-c]thiazole] | 19
NS(=O)(=O)CCn1cc(C(=O)c2ccn3c2CSC3c2ccc[n+]([O-])c2)c2ccc(-c3ccc(F)cc3)cc21 (stereo not shown) [Example 79, 3-(3-Oxide-pyridin-3-yl)-7-[1-(2-aminosulfonylethyl)-6-(4-fluorophenyl)indol-3-ylcarbonyl]-1H,3H-pyrrolo[1,2-c]thiazole] | 18
CN(CO)C(=O)Cn1cc(C(=O)c2ccn3c2CSC3c2cccnc2)c2ccc(-c3ccc(F)cc3)cc21 (stereo not shown) [Example 93] | 0.8

— patent publication US5459152A, “Platelet activating factor antagonists” (Abbott Laboratories, priority 1993, dated 1995)
